Laboratory results reported in patent US20180193273A1, “PHARMACEUTICAL COMPOSITION COMPRISING AMLODIPINE AND DEXTROMETHORPHAN” (TSH BIOPHARM CORPORATION LTD., priority 2015, published 2018).

How the values were obtained:
[1] = Different excipients: potency and impurity of vial samples A1 to A25 after 60° C./75% RH for 2 weeks (HPLC); format: physicochemical; details: glass vial sample
[2] = Compatibility study: drug potency and total impurity test of vial powder mixes after storage at 60° C./75% RH for 2 weeks (HPLC); format: physicochemical; details: glass vial powder mix

Total impurity (%): NMT 1.00% [1]	% Potency (Amlodipine besylate) [2]	Total impurity [2]	SMILES
0.02%	–	–	CCOC(=O)C1=C(COCCN)NC(C)=C(C(=O)OC)C1c1ccccc1Cl (stereo not drawn) [Sample A1, Amlodipine besylate]
–	100.2%	0.02	CCOC(=O)C1=C(COCCN)NC(C)=C(C(=O)OC)C1c1ccccc1Cl (stereo not drawn) [Table 1, Amlodipine besylate]
